In patent US20240398771A1, “TREATMENT OF SCLERODERMA AND RAYNAUD'S SYNDROME” (Aisa Pharma, Inc., priority 2023, published 2024):

Test system: participants with SSc-RP
Assay: Frequency of weekly symptomatic RP attacks (patient diary), Phase 2a Part A
Assay type: in vivo, human
Conditions: for Weekly Symptomatic RP Attacks, Max / Weekly Symptomatic RP Attacks, Mean (SD) / Weekly Symptomatic RP Attacks, Min / Weekly Symptomatic RP Attacks, Q1 / Weekly Symptomatic RP Attacks, Q3: last 7 days of dosing period
Experimental: Part A—Double-blind, Placebo-controlled, Parallel-group, Dose selection, will assess the safety and efficacy of two doses of cilnidipine (10 mg and 20 mg), alone and in combination with tadalafil. A total of 36 participants will be randomized to one of six pre-specified treatment arms. See Example 3 for data obtained in this phase of the study thus far, on 11 participants.
Please refer to FIG. 1 for treatment arms in Part A of the study. Dosing lasted or will last for 12 (±2) days in which participants self-administered or will self-administer daily doses of assigned treatment in the morning. Each participant took or will take one capsule and one tablet to blind the active therapy being received.
The relevant metrics measured by this tool daily are: • Study medication • SSc-RP symptoms (Reporting an attack including duration of attack) • Severity of the attack considering all symptoms of the attack e.g. tingling, numbness, pain, color changes (VAS 0-10 cm scale) • Participant's location at the time of the attack (inside home/outside home) • Selecting symptoms experienced during the attack (tingling, numbness, pain, color changes, other) • Pain rating during the attack (11-point Likert scale) • The RCS based on how much difficulty participants had with Raynaud's today, how many attacks the participant had, and how long they lasted. Participants will also be asked to consider how much pain, numbness, or other symptoms the Raynaud's caused in fingers (including painful sores), and how much the Raynaud's alone affected the use of hands today (VAS 0-10 cm scale).
Percent change from baseline evaluation for frequency of weekly RP attacks were or will be used as the primary efficacy variable. The sponsor-developed participant-informed diary will be used to record data. Frequency of weekly RP attacks is defined as the total number of RP attacks divided by the number of days with available diary data within the last 7 days of each dosing period then multiplied by 7. Total number of RP attacks during the last 7 days of screening period divided by the number of days with available data then multiplied by 7 will be used as baseline for the analysis of all periods.
Percentage change={(weekly RP attacks for the last 7 days of each dosing period−Baseline weekly RP attacks)/Baseline weekly RP attacks}*100%.
Absolute change=weekly RP attacks for the last 7 days of each dosing period−Baseline weekly RP attacks
Percent change from baseline evaluation for frequency of weekly RP attacks was and will be the primary efficacy endpoint. Frequency of weekly RP attacks is defined as the total number of RP attacks divided by the number of days with available diary data within the last 7 days of each dosing period then multiplied by 7. Total number of RP attacks during the last 7 days of screening period divided by the number of days with available data then multiplied by 7 will be used as baseline for the analysis of all periods.
The following data was actually obtained in accordance with the protocol and plan delineated in Examples 1 and 2. The accompanying data involved 11 patients out of the planned 76 patient study. The study was done in patients with scleroderma (systemic sclerosis) who had relatively frequent Raynaud symptoms as they needed to average at least one attack per day during a screening period of up to two weeks. In this first phase of this double-blind placebo-controlled, prospective randomized study, patients were treated in parallel and after meeting study criteria were randomized to receive either placebo, cilnidipine 10 mg daily, cilnidipine 20 mg daily, tadalafil 5 mg daily, cilnidipine 10 mg plus 5 mg of tadalafil, or cilnidipine 20 mg plus 5 mg of tadalafil.

[1] = Table A-1, ITT Part A, listed as Cilnidipine 10 mg
[2] = Table A-1, ITT Part A, listed as Cilnidipine 20 mg
[3] = Table A-1, ITT Part A, listed as Pooled Cilnidipine
[4] = Table A-1, ITT Part A, last 7 days of dosing vs last 7 days of screening, listed as Cilnidipine 10 mg
[5] = Table A-1, ITT Part A, last 7 days of dosing vs last 7 days of screening, listed as Cilnidipine 20 mg
[6] = Table A-1, ITT Part A, last 7 days of dosing vs last 7 days of screening, listed as Pooled Cilnidipine
[7] = Table A-2, excluding outliers, ITT Part A, listed as Cilnidipine 10 mg
[8] = Table A-2, excluding outliers, ITT Part A, listed as Cilnidipine 20 mg

**Q.** Which results are given for `COCCOC(=O)C1=C(C)NC(C)=C(C(=O)OC/C=C/c2ccccc2)C1c1cccc([N+](=O)[O-])c1` (centres unmarked) [Cilnidipine, 1,4-dihydro-2,6-dimethyl,4-(3-nitrophenyl)-3,5-pyridinedicarboxylic acid 2-methoxyethyl (2 E)-3-phenyl-2-propenyl ester]?
**A.** weekly frequency of Raynaud attacks, direction of change (Example 3, first 11 patients of Part A, vs baseline): decrease; Weekly Symptomatic RP Attacks, Max [1]: 14.0, 14.0; Weekly Symptomatic RP Attacks, Mean (SD) [1]: 14.00; Weekly Symptomatic RP Attacks, Min [1]: 14.0, 14.0; Weekly Symptomatic RP Attacks, Q1 [1]: 14.00, 14.00; Weekly Symptomatic RP Attacks, Q3 [1]: 14.00, 14.00; Weekly Symptomatic RP Attacks, Max [2]: 11.0; Weekly Symptomatic RP Attacks, Mean (SD) [2]: 8.00 (4.243); Weekly Symptomatic RP Attacks, Min [2]: 5.0; Weekly Symptomatic RP Attacks, Q1 [2]: 5.00; Weekly Symptomatic RP Attacks, Q3 [2]: 11.00; Weekly Symptomatic RP Attacks, Max [3]: 14.0; Weekly Symptomatic RP Attacks, Mean (SD) [3]: 10.00 (4.583); Weekly Symptomatic RP Attacks, Min [3]: 5.0; Weekly Symptomatic RP Attacks, Q1 [3]: 5.00; Weekly Symptomatic RP Attacks, Q3 [3]: 14.00; Weekly Symptomatic RP Attacks Percent Change from Baseline, Min (Table A-1, ITT Part A, last 7 days of dosing vs last 7 days of screening): −33.3, −33.3%; Weekly Symptomatic RP Attacks Change from Baseline, Max [4]: −7.0, −7.0; Weekly Symptomatic RP Attacks Change from Baseline, Mean (SD) [4]: −7.00; Weekly Symptomatic RP Attacks Change from Baseline, Min [4]: −7.0, −7.0; Weekly Symptomatic RP Attacks Change from Baseline, Q1 [4]: −7.00, −7.00; Weekly Symptomatic RP Attacks Change from Baseline, Q3 [4]: −7.00, −7.00; Weekly Symptomatic RP Attacks Percent Change from Baseline, Max [4]: −33.3, −33.3%; Weekly Symptomatic RP Attacks Change from Baseline, Max [5]: −2.0; Weekly Symptomatic RP Attacks Change from Baseline, Mean (SD) [5]: −4.50 (3.536); Weekly Symptomatic RP Attacks Change from Baseline, Min [5]: −7.0; Weekly Symptomatic RP Attacks Change from Baseline, Q1 [5]: −7.00; Weekly Symptomatic RP Attacks Change from Baseline, Q3 [5]: −2.00; Weekly Symptomatic RP Attacks Percent Change from Baseline, Max [5]: −28.6%; Weekly Symptomatic RP Attacks Percent Change from Baseline, Min [5]: −38.9%; Weekly Symptomatic RP Attacks Change from Baseline, Max [6]: −2.0; Weekly Symptomatic RP Attacks Change from Baseline, Min [6]: −7.0; Weekly Symptomatic RP Attacks Change from Baseline, Q1 [6]: −7.00; Weekly Symptomatic RP Attacks Change from Baseline, Q3 [6]: −2.00; Weekly Symptomatic RP Attacks Percent Change from Baseline, Max [6]: −28.6%; Weekly Symptomatic RP Attacks Percent Change from Baseline, Min [6]: −38.9%; Weekly Symptomatic RP Attacks Percent Change from Baseline, Q3 [6]: −28.57%; Weekly Symptomatic RP Attacks, Max [7]: 14.0, 14.0; Weekly Symptomatic RP Attacks, Mean (SD) [7]: 14.00; Weekly Symptomatic RP Attacks, Min [7]: 14.0, 14.0; Weekly Symptomatic RP Attacks, Q1 [7]: 14.00, 14.00; Weekly Symptomatic RP Attacks, Q3 [7]: 14.00, 14.00; Weekly Symptomatic RP Attacks, Max [8]: 11.0; Weekly Symptomatic RP Attacks, Mean (SD) [8]: 8.00 (4.243); Weekly Symptomatic RP Attacks, Min [8]: 5.0; Weekly Symptomatic RP Attacks, Q1 [8]: 5.00; Weekly Symptomatic RP Attacks, Q3 [8]: 11.00
